Tested on: human vascular smooth muscle cells
Assay: DNA synthesis inhibition activity (3H-thymidine intake) in human vascular smooth muscle cells
Type: cell-based
Conditions: for IC50: vascular cells derived from normal human aorta, 24 hours culture with 3H-thymidine, test compound as ethanol solution, compared with vehicle-treated control; for inhibiting activity on the growth of human vascular smooth muscle cells: conclusion in words from Table 2
Method: Determination of DNA synthesis inhibition activity of PGE1 analogs to human vascular smooth muscle cells
On a 24 well-plate (manufactured by Corning Co.), 1×10^4 cells/well of quintic culture cells of vascular cells derived from normal human aorta (produced by Kurabo Co.) were inoculated and cultured for 2 days. The medium was exchanged from the growth medium (SG2: produced by Kurabo Co.) to the basal medium (SB2: produced by Kurabo Co.), and cultured for 24 hours, to which was added the growth medium (SG2) containing an ethanol solution of the test compound. ^3H-thymidine (produced by Daiichi Chemicals Co.) was added in an amount of 0.01 mci/well and, after culturing for 24 hours, the cultured supernatant was removed by suction, followed by washing with a phosphate buffer solution (PBS).
5% Trichloroacetic acid (TCA) was added and, after allowing to stand at 4° C. for 20 minutes, the mixture was washed once with TCA. The mixture was washed with PBS, and dissolved in 0.5 N KOH. Intake of ^3H-thymidine was determined using 20 μl of KOH dissolving the cells which incorporated ^3H-thymidine in the nucleus by means of a liquid scintillation counter (manufactured by Hewlett-Packard Co.).

| Compound | IC50 [nM] | inhibiting activity on the growth of human vascular smooth muscle cells |
| --- | --- | --- |
| COC(=O)/C=C/CCCCC1C(=O)CC(O)C1C#CC(O)CCc1ccccc1 (centres unmarked) [Comparative Compound, (2E)-18,19,20-Trinor-17-phenyl-2,3,13,14-tetradehydro-PGE1 methyl ester, reference compound] | 4360 | – |
| Cc1ccc(CCCC2C(=O)CC(O)C2C=CC(O)CCc2ccccc2)cc1 (centres unmarked) [Compound 29, 2-Decarboxy-2,3,4,18,19,20-hexanor-5-(4-methylphenyl)-17-phenyl-PGE1] | 730 | high inhibiting activity |
| O=C1CC(O)C(C=CC(O)CCc2ccccc2)C1CCCc1ccc(C(F)(F)F)cc1 (centres unmarked) [Compound 18, 2-Decarboxy-2,3,4,18,19,20-hexanor-5-(4-trifluoromethylphenyl)-17-phenyl-PGE1] | 660 | high inhibiting activity |
